Our source for the cytotoxicity values is ChEMBL document CHEMBL3507680, “University of Dundee, Gates Library screen for HepG2 cell viability”.

Each structure is given as a SMILES string.

A short description of the data set: Human HepG2 cell viability assay in 384 well format. It is filed as toxicity, cell-based. Details: dose 125 nL, time 70.5 hour; cytotoxicity at 70.5 h: concentration not given beside the values. The note with it: HepG2 cells, read-out: Inhibition.
Consider `Cc1nc(CNC(=O)Nc2ccc3c(c2)CCCC(=O)N3)sc1C`, for which the cytotoxicity at 70.5 h is -0.115%.
With `CC1(C)CC(NC(=O)c2cnn(-c3ccccc3F)c2N)CC(C)(C)N1` the figure was 19.7%; with `CCN1CCN(c2ccc(C(=O)NC(C)C(=O)N(C)C)cc2)CC1` (stereo not given), -4.6%; with `Cc1ccccc1-n1cc(-c2ccnc(N3CCCC(CN)C3)n2)cn1` (stereo not given), -7.47%.
As for `CS(=O)(=O)N1C[C@@H]2CC[C@H](C1)N(C(=O)CCc1n[nH]c3c1CCCC3)C2`, the figure is 27.3%; as for `Cc1nc(C2CCN(C(=O)CO)CC2)cc(N2CCOCC2)n1`, -7.87%; as for `O=C(CCNc1ncccn1)Nc1cc(C(F)(F)F)c[nH]c1=O`, -6.4%.
As for `O=C(NCc1ccncc1)C1CN(c2nc3ccccc3s2)CCN1` (stereo not given), the figure is -0.512%; as for `Cc1ccc(-c2ccnc(N(C)CC3CCCN3C)n2)c(C)n1` (stereo not given), 16.3%; as for `Cc1nc(NC(=O)NCCCN2CCC(C(N)=O)CC2)sc1C`, -19.5%.
With `CC(C)(CN1CCCC1)CN1CCC(Cn2cc(C3CC3)nn2)CC1`, the cytotoxicity at 70.5 h is -9.26%.
With `O=C(OCc1ccccc1)N1CC[C@H]2CC(CO)O[C@@H]2C1` (stereo not given in full) the figure was 4.61%; with `COCCc1ncc(CN2C[C@@H](C(=O)O)[C@H](C(C)C)C2)cn1`, 14.1%; with `CC(=O)N(Cc1ncc(C)o1)C1CCN(Cc2ccncc2Cl)C1` (stereo not given), -1.73%.
As for `COc1c(C2CCCN2C(=O)c2cc(C)on2)c(C)nn1C` (stereo not given), the figure is -8.13%.
With `Cc1n[nH]c(=O)c(C(=O)N2CCN(CCc3cccs3)CC2)c1C` the figure was -2.36%; with `CC(C)(NC(=O)Nc1cnn(CC2CCCO2)c1)c1nccs1` (stereo not given), -6.03%.
For the compound `O=C(c1cnccn1)N1CCN(CC2CC2)c2ncccc2C1`, the cytotoxicity at 70.5 h was 5.88%.
With `O=C(CCNC(=O)c1ccoc1)Nc1ccc(F)cc1F` the figure was -10.2%; with `Cc1nc(C)n(CC2CCCN2Cc2cn3c(C)cccc3n2)n1` (stereo not given), -4.2%.
With `c1ccc(Cc2nnc(CN3CCCCC3Cn3cncn3)o2)cc1` (stereo not given) the figure was 0.659%; with `CCOCC(O)CN1CCN(C(=O)c2ccc3c(c2)COC3)CC1` (stereo not given), -8.02%.
With `Cn1ccnc1CN1C[C@@H](CN2CCC(CO)CC2)[C@@H](CO)C1` the figure was -7.99%; with `Cc1cc(C)cc(OCCC(=O)N2CCOCC2c2ncon2)c1` (stereo not given), 5.7%; with `O=C1CC(c2ccc(F)cc2)Cc2[nH]c(=O)c(C(=O)O)cc21` (stereo not given), -8.55%.
Regarding `Cc1cccc(CN2Cc3[nH]nc(COCc4nccs4)c3C2)n1`, the cytotoxicity at 70.5 h was -0.324%.
As for `CCOc1ccc(Cl)c(C(=O)N2CCCSCC2)n1`, the figure is -10.6%.
As to `COC[C@@]12CCO[C@@H]1CCN(Cc1ccccc1OC)C2`, the cytotoxicity at 70.5 h is -12.9%.
For `Cc1occc1C(=O)N1CCC2(CCN(Cc3ccccn3)C2=O)C1` (stereo not given), the cytotoxicity at 70.5 h stood at 5.42%.
On to `CC(C)c1cc(N[C@H](C(N)=O)C(C)C)n2nccc2n1`, for which the cytotoxicity at 70.5 h was -4.75%.
In the case of `CC(NCc1cnc(N2CCN(C)CC2)nc1)c1ccc(F)cc1` (stereo not given), the cytotoxicity at 70.5 h was -6.26%.
With `CCc1cc(NC2CCS(=O)(=O)C2)nc(N2CCCCC2)n1` (stereo not given) the figure was -3.25%; with `COc1c(C)cnc(CNC(=O)c2cc(C)nc3onc(C)c23)c1C`, -5.39%; with `O=C(O)c1cc(S(=O)(=O)N2CCOc3ccccc32)ccc1Br`, -2.35%.
For `COc1ccc(C(=O)CCc2nc(C3CC3)no2)cc1`, the cytotoxicity at 70.5 h is -23.1%.
As for `c1cnc(N2CCO[C@H]3CN(Cc4csnn4)C[C@H]32)nc1`, the figure is -11.7%; as for `CO[C@H]1CNC[C@@H]1NC(=O)c1cc(C)nc2ccc(C)cc12`, 12.1%.
With `CC(C)N(C)C(=O)C1CSCN1S(=O)(=O)c1cc(Cl)ccc1Cl` (stereo not given) the figure was 11.9%; with `Cc1cnn(C2CCCN(C(=O)CCCOc3ccccc3F)C2)c1` (stereo not given), -5.78%; with `CC(C)C[C@@H]1N[C@H](C(=O)NC2CCOCC2)Cc2c[nH]c3cccc1c23`, -4.79%.
As for `Cn1cc(S(=O)(=O)Nc2ccc(Cl)cn2)cc1C(N)=O`, the cytotoxicity at 70.5 h was -3.76%.
As for `CCn1cc(NC(=O)NCC(C)N(C)C)cn1` (stereo not given), the figure is 18.2%.
With `Cc1cc(C)c(N(CC(O)CNCc2ccccc2)S(C)(=O)=O)c(C)c1` (stereo not given) the figure was -6.51%; with `CN(CCOc1ccccc1F)C1CCOC1=O` (stereo not given), -1.46%; with `Cc1ccc(C#N)c(N2CCC(c3nccn3Cc3cscn3)CC2)n1`, -8.13%.
`Cc1cnc2c(S(=O)(=O)NC3CCS(=O)(=O)C3)cccc2c1` (stereo not given): the cytotoxicity at 70.5 h is -8.37%.
As for `CC(O)CN1CCN(Cc2coc(-c3cccc(Cl)c3)n2)CC1` (stereo not given), the figure is -1.14%.
Turning to `CN(C)CC(C)(O)CNC(=O)Nc1sc2ccccc2c1Cl` (stereo not given), the cytotoxicity at 70.5 h amounted to 8.3%.
As to `Cc1noc(C(C)C)c1C(=O)N1CCC(n2cccn2)CC1`, the cytotoxicity at 70.5 h was determined as 13.2%.
As for `Cc1ccc(NC2CCN(C(=O)CCn3nc(C)cc3C)CC2)nn1`, the figure is -14.3%; as for `Cc1nn(C)cc1C(C)Nc1ncc(C(N)=O)cc1Cl` (stereo not given), -5.7%; as for `CC(C)Cc1noc(CN2CCCC2c2noc(C3CC3)n2)n1` (stereo not given), -10.4%.
As for `Cc1cc(NCc2cccnc2)n2nc(C)cc2n1`, the figure is -8.91%; as for `O=C(c1ccc(OCC2CC2)nc1)N1CCCC(n2cccn2)C1` (stereo not given), -7.07%; as for `Cc1cc(C2CCCN(Cc3cccnc3)C2)n[nH]1` (stereo not given), 47.5%.
With `CC(C)c1nnc2n1CCN(C(=O)CN1Cc3ccccc3C1=O)C2` the figure was 4.15%.
On to `COc1ccc(-c2ccnc(N)c2)c(OC)c1`, for which the cytotoxicity at 70.5 h is 13.7%.
As for `Cc1cnc(C(=O)N2CCC3(CCN3Cc3ccc(F)cc3)C2)cn1` (stereo not given), the figure is -0.513%.
Consider `CCCc1nn(C2CCCN(C(C)C)C2=O)c(=O)o1` (stereo not given), for which the cytotoxicity at 70.5 h was -9.22%.
Take `CN(C)c1cccc(C(=O)N2CCC(c3n[nH]c(C4CC4)n3)CC2)c1`: the cytotoxicity at 70.5 h is -5.06%.
As for `CN(Cc1cccs1)C(=O)CN1C(=O)c2cc(Cl)c(Cl)cc2C1=O`, the figure is -13.1%.
With `C=C(C)COc1cccc(CNC(CC)c2ccnn2C)c1` (stereo not given) the figure was 1.1%; with `COCCc1ncc(CNC2(c3ccc(Cl)cc3)CC2)cn1`, 0.0528%.
In the case of `CC(C)c1ncc(-c2cc(C3CCC3)nc(N)c2C#N)cn1`, the cytotoxicity at 70.5 h was -8.31%.
Turning to `COc1cccc(CNCc2cccc(Cl)c2)c1O`, the cytotoxicity at 70.5 h is -4.96%.
With `Cc1cccnc1CN(C)C(C(=O)O)c1ccc(C(C)(C)C#N)cc1` (stereo not given) the figure was -0.799%; with `Cc1ccc(S(N)(=O)=O)cc1C(=O)N1C[C@@H](CN(C)C)[C@@H](CO)C1`, -5.13%.
With `Cc1ccc(NC(=O)Nc2c[nH]c(=O)[nH]c2=O)c(C)c1` the figure was 11.8%; with `NCC1CN(c2nc(-c3cccnc3)nc3c2CCNCC3)CCO1` (stereo not given), 26.4%; with `Cc1nc(C)n(CC2CCCCN2CCCS(N)(=O)=O)n1` (stereo not given), -5.16%.
